Here are results for one compound from publication PMC3023147 (Protein & cell, 2010).

SMILES strings stand for the structures.

The assay concerns the target T1, mTAT (mouse tyrosine aminotransferase) (Mus musculus, UniProt Q8QZR1).
T1 sequence (Q8QZR1 41-442): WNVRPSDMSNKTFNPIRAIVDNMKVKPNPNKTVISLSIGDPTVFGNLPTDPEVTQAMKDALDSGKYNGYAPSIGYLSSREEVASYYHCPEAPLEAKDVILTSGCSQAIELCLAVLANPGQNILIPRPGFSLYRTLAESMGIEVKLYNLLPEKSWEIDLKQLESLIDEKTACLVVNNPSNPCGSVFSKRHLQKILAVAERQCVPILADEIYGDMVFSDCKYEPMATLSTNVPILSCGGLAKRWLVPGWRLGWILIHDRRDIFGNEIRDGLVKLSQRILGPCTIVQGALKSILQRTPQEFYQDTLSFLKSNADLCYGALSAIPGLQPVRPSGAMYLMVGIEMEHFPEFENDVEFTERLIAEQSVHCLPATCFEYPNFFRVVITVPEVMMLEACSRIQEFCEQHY
Description: X-ray crystal structure, […] Å. The class given is binding. Conditions: covalent; internal Schiff base with Lys280; pH 6.8.

In the case of `Cc1ncc(COP(=O)(O)O)c(C=O)c1O` [PLP], the “X-ray crystal structure, 2.9 Å” value is on record as “Residual electron density clearly revealed the presence of covalently bound PLP in the active center”.
